One assay addresses T1, JAK3 (Homo sapiens, UniProt P52333).
T1 construct: GST; purchased Life Technologies
The assay is described as follows: LanthaScreen JAK biochemical assay, JAK3. The conditions noted are these: read-out: JAK 3 pKi (converted). The method, then: A panel of four LanthaScreen JAK biochemical assays (JAK1, 2, 3 and Tyk2) were carried in a common kinase reaction buffer (50 mM HEPES, pH 7.5, 0.01% Brij-35, 10 mM MgCl2, and 1 mM EGTA). Recombinant GST-tagged JAK enzymes and a GFP-tagged STAT1 peptide substrate were obtained from Life Technologies.
Serially diluted compound was pre-incubated with each of the four JAK enzymes and the substrate in white 384-well microplates (Corning) at ambient temperature for 1 h. ATP was subsequently added to initiate the kinase reactions in 10 μL total volume, with 1% DMSO. […] The plates were allowed to incubate at ambient temperature for 1 h before being read on the EnVision reader (Perkin Elmer). Emission ratio signals (520 nm/495 nm) were recorded and utilized to calculate the percent inhibition values based on DMSO and background controls.
For dose-response analysis, percent inhibition data were plotted vs. compound concentrations, and IC50 values were determined from a 4-parameter robust fit model with the Prism software (GraphPad Software). Results were expressed as pIC50 (negative logarithm of IC50) and subsequently converted to pKi (negative logarithm of dissociation constant, Ki) using the Cheng-Prusoff equation.
A general note: TR-FRET usually uses a lanthanide donor and a delayed reading to cut background.

A further assay addresses T2, KIT (Homo sapiens, UniProt P10721).
T2 construct: made in house; host or cells: T7 phage in E. coli (BL21-derived) or HEK-293
As to the kind of experiment: Kinome screen, KIT. The assay is classed as binding. The conditions noted are these: screened at 1 μM. The method, then:
(§1) Kinase-tagged T7 phage strains were grown in parallel in 24-well blocks in an E. coli host derived from the BL21 strain. E. coli were grown to log-phase and infected with T7 phage from a frozen stock (multiplicity of infection=0.4) and incubated with shaking at 32° C. until lysis (90-150 minutes). The lysates were centrifuged (6,000×g) and filtered (0.2 μm) to remove cell debris. The remaining kinases were produced in HEK-293 cells and subsequently tagged with DNA for qPCR detection.
(§2) Streptavidin-coated magnetic beads were treated with biotinylated small molecule ligands for 30 minutes at room temperature to generate affinity resins for kinase assays. The liganded beads were blocked with excess biotin and washed with blocking buffer (SeaBlock (Pierce), 1% BSA, 0.05% Tween 20, 1 mM DTT) to remove unbound ligand and to reduce non-specific phage binding. […] Test compounds were prepared as 40× stocks in 100% DMSO and directly diluted into the assay. All reactions were performed in polypropylene 384-well plates in a final volume of 0.04 ml. […] The beads were then re-suspended in elution buffer (1×PBS, 0.05% Tween 20, 0.5 μM non-biotinylated affinity ligand) and incubated at room temperature with shaking for 30 minutes. The kinase concentration in the eluates was measured by qPCR.

Assay [1] concerns IL-6 stimulated CCL2 (MCP-1) in human PBMCs. The assay is described as follows: Cellular JAK potency assay: inhibition of IL-6 stimulated CCL2 (MCP-1) in human PBMCs. It counts as cell-based. The conditions noted are these: PBMC, 48 h stimulation, read-out: pIC50, inhibition of IL-6 stimulated CCL2 (MCP-1) (converted). The method, then:
The potency of the test compound for inhibition of interleukin-6 (IL-6) stimulated CCL2 (MCP-1) production was measured in human peripheral blood mononuclear cells (PBMCs) isolated from human whole blood (Stanford Blood Center). Because IL-6 signals through JAK, this assay provides a distal measure of JAK cellular potency.
(1) The protocol of Assay 3 paragraph (1) was followed up to the incubation with test compounds. In the present assay, after test compounds were added to wells and incubated, IL-6 (R&D Systems; final concentration 10 ng/ml) in pre-warmed assay media (50 μL) was added.
(2) After cytokine stimulation for 48 h, cells were centrifuged at 500 g for 5 min and supernatants were removed and frozen at −80° C. To determine the inhibitory potency of the test compound in response to IL-6, supernatant CCL2 (MCP-1) concentrations were measured via ELISA (R&D Systems). IC50 values were determined from analysis of the inhibition curves of concentration of CCL2/MCP-1 vs compound concentration. Data are expressed as pIC50 (negative decadic logarithm IC50) values.

The target of a further assay is T3, ALK (Homo sapiens, UniProt Q9UM73).
T3 construct: made in house; host or cells: T7 phage in E. coli (BL21-derived) or HEK-293
T3 sequence (Q9UM73 19-1620): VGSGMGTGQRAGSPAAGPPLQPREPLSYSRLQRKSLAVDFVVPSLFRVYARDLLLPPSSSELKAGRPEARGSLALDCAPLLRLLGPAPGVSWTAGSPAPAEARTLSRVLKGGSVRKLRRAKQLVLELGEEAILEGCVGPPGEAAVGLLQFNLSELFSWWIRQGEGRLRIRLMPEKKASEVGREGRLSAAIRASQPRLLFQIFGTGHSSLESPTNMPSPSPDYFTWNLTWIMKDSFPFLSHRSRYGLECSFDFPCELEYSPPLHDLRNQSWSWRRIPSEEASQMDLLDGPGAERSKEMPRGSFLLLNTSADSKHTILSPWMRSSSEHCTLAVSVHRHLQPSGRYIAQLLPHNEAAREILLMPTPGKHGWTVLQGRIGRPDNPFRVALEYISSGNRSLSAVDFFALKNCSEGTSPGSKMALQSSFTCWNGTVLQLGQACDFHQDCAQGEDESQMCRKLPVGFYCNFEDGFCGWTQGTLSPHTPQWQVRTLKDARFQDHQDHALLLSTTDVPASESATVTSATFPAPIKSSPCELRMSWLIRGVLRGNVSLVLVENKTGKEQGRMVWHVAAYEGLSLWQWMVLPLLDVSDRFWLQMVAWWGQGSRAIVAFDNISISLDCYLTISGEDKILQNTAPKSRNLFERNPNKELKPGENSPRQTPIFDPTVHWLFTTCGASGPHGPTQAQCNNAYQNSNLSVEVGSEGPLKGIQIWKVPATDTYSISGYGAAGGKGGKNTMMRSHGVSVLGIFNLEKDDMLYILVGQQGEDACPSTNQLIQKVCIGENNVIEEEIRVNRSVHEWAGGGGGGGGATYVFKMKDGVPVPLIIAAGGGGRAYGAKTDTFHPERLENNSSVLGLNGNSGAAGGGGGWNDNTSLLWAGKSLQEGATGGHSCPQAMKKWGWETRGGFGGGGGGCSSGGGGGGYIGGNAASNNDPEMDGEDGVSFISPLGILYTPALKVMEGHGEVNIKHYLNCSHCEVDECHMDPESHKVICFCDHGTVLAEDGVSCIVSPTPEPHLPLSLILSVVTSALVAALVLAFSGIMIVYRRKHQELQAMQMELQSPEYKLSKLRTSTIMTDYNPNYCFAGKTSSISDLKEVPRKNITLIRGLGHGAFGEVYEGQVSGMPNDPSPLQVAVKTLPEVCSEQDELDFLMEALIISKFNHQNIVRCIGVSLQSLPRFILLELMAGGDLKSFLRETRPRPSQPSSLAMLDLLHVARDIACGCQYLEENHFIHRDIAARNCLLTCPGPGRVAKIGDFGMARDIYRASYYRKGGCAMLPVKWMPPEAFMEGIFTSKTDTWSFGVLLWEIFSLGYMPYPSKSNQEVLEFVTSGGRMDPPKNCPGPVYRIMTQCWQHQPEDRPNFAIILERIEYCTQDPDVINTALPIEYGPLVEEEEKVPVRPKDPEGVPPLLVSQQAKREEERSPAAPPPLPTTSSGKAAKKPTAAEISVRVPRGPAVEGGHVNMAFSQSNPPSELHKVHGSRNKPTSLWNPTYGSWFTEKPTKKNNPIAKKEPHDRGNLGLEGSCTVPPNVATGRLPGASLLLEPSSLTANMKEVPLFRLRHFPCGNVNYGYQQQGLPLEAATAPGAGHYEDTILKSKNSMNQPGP
The assay is described as follows: Kinome screen, ALK. The assay is classed as binding. The conditions noted are these: screened at 1 μM. The method, then: as §1, §2

In a further assay the test system is IL-6 induced pSTAT3. As to the kind of experiment: Pharmacodynamic assay: inhibition of IL6-induced pSTAT3 in rats. The assay is classed as in vivo, rat. The conditions noted are these: 50 μg intravitreal, suspension formulation, 3 day pre-treatment prior to IL-6 challenge, female Lewis rats. The method, then:
The ability of a single intravitreal administration of test compound to inhibit IL-6 induced pSTAT3 was measured in rat retina/choroid homogenates.
A suspension formulation was prepared by combining compound 1 of Example 2, with 0.5% hydroxypropyl methylcellulose (HPMC E5 LV), 0.02% Tween 80, and 9 mg/mL sodium chloride in purified water to attain a target concentration of 10 mg/mL.
Female Lewis rats were intravitreally (IVT) dosed (5 μL per eye) with the suspension formulation. Three days later, IL-6 (Peprotech; 0.1 mg/mL; 5 μL per eye) or vehicle was intravitreally administered to induce pSTAT3. Ocular tissues were dissected one hour after the second IVT injection with IL-6. The retina/choroid tissues were homogenized and pSTAT3 levels were measured using an ELISA (Cell Signaling Technology). The percent inhibition of IL-6-induced pSTAT3 was calculated in comparison to the vehicle/vehicle and vehicle/IL-6 groups. Inhibition of greater than 100% reflects a reduction of pSTAT3 levels to below those observed in the vehicle/vehicle group.

For the next assay, the target named is T4, AURKA (Homo sapiens, UniProt O14965).
T4 construct: made in house; host or cells: T7 phage in E. coli (BL21-derived) or HEK-293
T4 sequence (O14965 whole entry): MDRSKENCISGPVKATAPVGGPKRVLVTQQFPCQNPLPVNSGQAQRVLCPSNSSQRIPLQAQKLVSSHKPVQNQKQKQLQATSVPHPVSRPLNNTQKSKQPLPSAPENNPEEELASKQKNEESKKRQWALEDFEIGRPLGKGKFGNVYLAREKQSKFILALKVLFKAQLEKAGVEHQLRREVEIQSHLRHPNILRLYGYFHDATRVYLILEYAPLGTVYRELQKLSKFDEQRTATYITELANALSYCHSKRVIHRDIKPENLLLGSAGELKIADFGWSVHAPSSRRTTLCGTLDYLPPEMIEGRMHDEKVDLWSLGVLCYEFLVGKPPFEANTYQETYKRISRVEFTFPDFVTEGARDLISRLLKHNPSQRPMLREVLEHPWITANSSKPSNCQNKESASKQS
As to the kind of experiment: Kinome screen, AURKA. The assay is classed as binding. The conditions noted are these: screened at 1 μM. The procedure: as §1, §2

T1 sequence (P52333 whole entry): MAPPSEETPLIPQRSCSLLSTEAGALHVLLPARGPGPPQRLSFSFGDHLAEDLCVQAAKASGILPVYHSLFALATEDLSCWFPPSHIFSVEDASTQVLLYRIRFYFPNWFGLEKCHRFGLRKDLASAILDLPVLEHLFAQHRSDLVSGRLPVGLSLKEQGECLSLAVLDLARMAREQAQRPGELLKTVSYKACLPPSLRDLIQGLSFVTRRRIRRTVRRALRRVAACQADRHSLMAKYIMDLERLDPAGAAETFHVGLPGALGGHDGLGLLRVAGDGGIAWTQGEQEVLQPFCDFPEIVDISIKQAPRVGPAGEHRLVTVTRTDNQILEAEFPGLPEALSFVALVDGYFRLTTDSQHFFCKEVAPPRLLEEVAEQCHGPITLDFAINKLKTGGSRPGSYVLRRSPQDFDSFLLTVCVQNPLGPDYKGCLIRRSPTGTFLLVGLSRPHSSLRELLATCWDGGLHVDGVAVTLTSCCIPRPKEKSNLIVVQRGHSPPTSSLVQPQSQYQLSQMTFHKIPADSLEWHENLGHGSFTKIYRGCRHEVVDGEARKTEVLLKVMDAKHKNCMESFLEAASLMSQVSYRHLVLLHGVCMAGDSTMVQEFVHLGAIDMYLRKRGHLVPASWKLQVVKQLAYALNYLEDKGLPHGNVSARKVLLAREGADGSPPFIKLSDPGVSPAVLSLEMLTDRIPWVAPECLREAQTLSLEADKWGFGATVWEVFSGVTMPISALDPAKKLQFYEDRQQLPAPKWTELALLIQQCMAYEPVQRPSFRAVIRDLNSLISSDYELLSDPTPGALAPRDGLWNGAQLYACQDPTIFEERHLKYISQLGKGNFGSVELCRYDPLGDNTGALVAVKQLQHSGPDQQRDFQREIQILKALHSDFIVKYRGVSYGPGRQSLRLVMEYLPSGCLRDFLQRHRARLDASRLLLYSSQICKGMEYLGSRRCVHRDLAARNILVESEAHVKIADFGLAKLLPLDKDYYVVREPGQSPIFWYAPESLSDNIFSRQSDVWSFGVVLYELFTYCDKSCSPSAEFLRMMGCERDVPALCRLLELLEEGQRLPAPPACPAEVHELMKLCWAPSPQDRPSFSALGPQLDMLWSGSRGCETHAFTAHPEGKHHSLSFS
T2 sequence (P10721 26-976): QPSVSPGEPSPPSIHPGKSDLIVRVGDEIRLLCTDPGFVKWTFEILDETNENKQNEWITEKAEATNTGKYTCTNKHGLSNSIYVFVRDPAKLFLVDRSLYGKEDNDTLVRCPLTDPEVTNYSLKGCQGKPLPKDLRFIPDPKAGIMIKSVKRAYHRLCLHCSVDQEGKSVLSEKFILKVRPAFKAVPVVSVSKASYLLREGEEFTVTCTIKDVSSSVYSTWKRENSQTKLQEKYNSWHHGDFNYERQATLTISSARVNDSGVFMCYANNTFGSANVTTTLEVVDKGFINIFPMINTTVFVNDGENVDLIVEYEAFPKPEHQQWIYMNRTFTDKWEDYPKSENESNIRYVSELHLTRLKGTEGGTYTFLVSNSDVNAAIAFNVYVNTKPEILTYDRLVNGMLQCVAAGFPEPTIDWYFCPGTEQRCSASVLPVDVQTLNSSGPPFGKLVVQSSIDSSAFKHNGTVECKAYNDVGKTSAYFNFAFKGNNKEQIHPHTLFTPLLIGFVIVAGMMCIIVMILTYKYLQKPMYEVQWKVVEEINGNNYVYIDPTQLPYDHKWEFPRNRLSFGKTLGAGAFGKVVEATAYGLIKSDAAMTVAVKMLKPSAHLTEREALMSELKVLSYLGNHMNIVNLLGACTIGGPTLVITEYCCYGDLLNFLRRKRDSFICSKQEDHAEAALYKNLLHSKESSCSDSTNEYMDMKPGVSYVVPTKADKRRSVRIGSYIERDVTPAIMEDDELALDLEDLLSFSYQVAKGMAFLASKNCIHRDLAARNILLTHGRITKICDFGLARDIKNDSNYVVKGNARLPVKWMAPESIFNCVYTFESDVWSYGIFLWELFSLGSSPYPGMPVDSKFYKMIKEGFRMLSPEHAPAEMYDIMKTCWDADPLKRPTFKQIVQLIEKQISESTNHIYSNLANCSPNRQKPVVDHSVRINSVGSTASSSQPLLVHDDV

Broadly, the inhibition is the drop in the measured response relative to a control, in per cent. A higher inhibition goes with a strong effect. Take `CCc1cc(O)c(F)cc1-c1cc(F)c2c(-c3nc4c([nH]3)CCN(C(=O)CN3CCOCC3)C4)n[nH]c2c1` [Compound 1, 1-(2-(6-(2-ethyl-5-fluoro-4-hydroxyphenyl)-4-fluoro-1H-indazol-3-yl)-1,4,6,7-tetrahydro-5H-imidazo[4,5-c]pyridin-5-yl)-2-morpholinoethan-1-one]: the Ki on JAK3 was 0.0002 µM. In addition, the inhibition at 1 µM at KIT worked out at 87%; on ALK, 75%; at AURKA, 11%. Also, in assay [1], the IC50 is approximately 0.398 µM. In the assay with IL-6 induced pSTAT3, the “inhibition of IL-6-induced pSTAT3 in retina/choroid tissues” value stood at 116%.

These data come from patent US10493077B2, “Fused imidazo-piperidine JAK inhibitor compound” (THERAVANCE BIOPHARMA R&D IP, LLC, priority 2017, dated 2019).
